The compounds below were run on test plant species (assay: Post-emergent herbicidal activity test (greenhouse, foliar spray, visual growth reduction)). Details: post-emergence, 336 h, ALOMY: blackgrass (Alopecurus myosuroides), 140 g ai/ha, 14 days after application, read-out: Visual Growth Reduction (%) 14 Days After Application, ALOMY.
Type: in vivo
Outline: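 Greenhouse plants at first–second true leaf stage sprayed overhead at 187 L/ha with compound in acetone/water/isopropanol/DMSO/crop oil/X-77 carrier; controls received solvent blank. Injury rated visually after 14 d on a 0–100% scale versus untreated and control plants, converted to growth reduction.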
With `COC(=O)c1nc(-c2ccc(C(F)(F)F)cc2Cl)ccc1F` [F113, methyl 6-(2-chloro-4-(trifluoromethyl)phenyl)-3-fluoropicolinate] the pest or weed control at 140 g/ha was 0 to 29%. `COC(=O)c1nc(-c2ccc(C(F)(F)F)cc2Cl)c(I)cc1Cl` [F6, Methyl 3-chloro-6-(2-chloro-4-(trifluoromethyl)phenyl)-5-iodopicolinate] gave a pest or weed control at 140 g/ha of 0 to 29%.

Same assay, conditions: post-emergence, 336 h, AMARE: redroot pigweed (Amaranthus retroflexus), 140 g ai/ha, 14 days after application, read-out: Visual Growth Reduction (%) 14 Days After Application, AMARE
Compound `COC(=O)c1nc(-c2ccc(C(F)(F)F)cc2Cl)ccc1F` [F113, methyl 6-(2-chloro-4-(trifluoromethyl)phenyl)-3-fluoropicolinate] has a pest or weed control at 140 g/ha of 95 to 100%. `COC(=O)c1nc(-c2ccc(C(F)(F)F)cc2Cl)c(I)cc1Cl` [F6, Methyl 3-chloro-6-(2-chloro-4-(trifluoromethyl)phenyl)-5-iodopicolinate] was tested, and the pest or weed control at 140 g/ha was 0 to 29%.

Same assay, conditions: post-emergence, 336 h, AVEFA: wild oat (Avena fatua), 140 g ai/ha, 14 days after application, read-out: Visual Growth Reduction (%) 14 Days After Application, AVEFA
In the case of `COC(=O)c1nc(-c2ccc(C(F)(F)F)cc2Cl)ccc1F` [F113, methyl 6-(2-chloro-4-(trifluoromethyl)phenyl)-3-fluoropicolinate], the pest or weed control at 140 g/ha is reported as 45 to 59%. `COC(=O)c1nc(-c2ccc(C(F)(F)F)cc2Cl)c(I)cc1Cl` [F6, Methyl 3-chloro-6-(2-chloro-4-(trifluoromethyl)phenyl)-5-iodopicolinate] showed a pest or weed control at 140 g/ha of 0 to 29%.

Same assay, conditions: post-emergence, 336 h, CHEAL: lambsquarters (Chenopodium album), 140 g ai/ha, 14 days after application, read-out: Visual Growth Reduction (%) 14 Days After Application, CHEAL
`COC(=O)c1nc(-c2ccc(C(F)(F)F)cc2Cl)ccc1F` [F113, methyl 6-(2-chloro-4-(trifluoromethyl)phenyl)-3-fluoropicolinate] showed a pest or weed control at 140 g/ha of 95 to 100%. `COC(=O)c1nc(-c2ccc(C(F)(F)F)cc2Cl)c(I)cc1Cl` [F6, Methyl 3-chloro-6-(2-chloro-4-(trifluoromethyl)phenyl)-5-iodopicolinate] was tested, and the pest or weed control at 140 g/ha was 0 to 29%.

Same assay, conditions: post-emergence, 336 h, CIRAR: canada thistle (Cirsium arvense), 140 g ai/ha, 14 days after application, read-out: Visual Growth Reduction (%) 14 Days After Application, CIRAR
For `COC(=O)c1nc(-c2ccc(C(F)(F)F)cc2Cl)ccc1F` [F113, methyl 6-(2-chloro-4-(trifluoromethyl)phenyl)-3-fluoropicolinate], the pest or weed control at 140 g/ha was 85 to 94%. `COC(=O)c1nc(-c2ccc(C(F)(F)F)cc2Cl)c(I)cc1Cl` [F6, Methyl 3-chloro-6-(2-chloro-4-(trifluoromethyl)phenyl)-5-iodopicolinate] showed a pest or weed control at 140 g/ha of 60 to 74%.

Same assay, conditions: post-emergence, 336 h, CYPES: yellow nutsedge (Cyperus esculentus), 140 g ai/ha, 14 days after application, read-out: Visual Growth Reduction (%) 14 Days After Application, CYPES
For `COC(=O)c1nc(-c2ccc(C(F)(F)F)cc2Cl)ccc1F` [F113, methyl 6-(2-chloro-4-(trifluoromethyl)phenyl)-3-fluoropicolinate], the pest or weed control at 140 g/ha was 0 to 29%. In the case of `COC(=O)c1nc(-c2ccc(C(F)(F)F)cc2Cl)c(I)cc1Cl` [F6, Methyl 3-chloro-6-(2-chloro-4-(trifluoromethyl)phenyl)-5-iodopicolinate], the pest or weed control at 140 g/ha is reported as 0 to 29%.

Same assay, conditions: post-emergence, 336 h, DIGSA: crabgrass (Digitaria sanguinalis), 140 g ai/ha, 14 days after application, read-out: Visual Growth Reduction (%) 14 Days After Application, DIGSA
In the case of `COC(=O)c1nc(-c2ccc(C(F)(F)F)cc2Cl)ccc1F` [F113, methyl 6-(2-chloro-4-(trifluoromethyl)phenyl)-3-fluoropicolinate], the pest or weed control at 140 g/ha is reported as 85 to 94%. For `COC(=O)c1nc(-c2ccc(C(F)(F)F)cc2Cl)c(I)cc1Cl` [F6, Methyl 3-chloro-6-(2-chloro-4-(trifluoromethyl)phenyl)-5-iodopicolinate], the pest or weed control at 140 g/ha was 0 to 29%.

Same assay, conditions: post-emergence, 336 h, ECHCG: barnyardgrass (Echinochloa crus-galli), 140 g ai/ha, 14 days after application, read-out: Visual Growth Reduction (%) 14 Days After Application, ECHCG
`COC(=O)c1nc(-c2ccc(C(F)(F)F)cc2Cl)ccc1F` [F113, methyl 6-(2-chloro-4-(trifluoromethyl)phenyl)-3-fluoropicolinate] was tested, and the pest or weed control at 140 g/ha was 75 to 84%.

Same assay, conditions: post-emergence, 336 h, IPOHE: ivy-leaf morning glory (Ipomoea hederacea), 140 g ai/ha, 14 days after application, read-out: Visual Growth Reduction (%) 14 Days After Application, IPOHE
Compound `COC(=O)c1nc(-c2ccc(C(F)(F)F)cc2Cl)ccc1F` [F113, methyl 6-(2-chloro-4-(trifluoromethyl)phenyl)-3-fluoropicolinate] has a pest or weed control at 140 g/ha of 95 to 100%.

Same assay, conditions: post-emergence, 336 h, KCHSC: kochia (Bassia scoparia), 140 g ai/ha, 14 days after application, read-out: Visual Growth Reduction (%) 14 Days After Application, KCHSC
Work on `COC(=O)c1nc(-c2ccc(C(F)(F)F)cc2Cl)ccc1F` [F113, methyl 6-(2-chloro-4-(trifluoromethyl)phenyl)-3-fluoropicolinate] yielded a pest or weed control at 140 g/ha of 60 to 74%.

Same assay, conditions: post-emergence, 336 h, ORYSA: rice (Oryza sativa), 140 g ai/ha, 14 days after application, read-out: Visual Growth Reduction (%) 14 Days After Application, ORYSA
Work on `COC(=O)c1nc(-c2ccc(C(F)(F)F)cc2Cl)ccc1F` [F113, methyl 6-(2-chloro-4-(trifluoromethyl)phenyl)-3-fluoropicolinate] yielded a pest or weed control at 140 g/ha of 30 to 44%.

Same assay, conditions: post-emergence, 336 h, SETFA: giant foxtail (Setaria faberi), 140 g ai/ha, 14 days after application, read-out: Visual Growth Reduction (%) 14 Days After Application, SETFA
`COC(=O)c1nc(-c2ccc(C(F)(F)F)cc2Cl)ccc1F` [F113, methyl 6-(2-chloro-4-(trifluoromethyl)phenyl)-3-fluoropicolinate] gave a pest or weed control at 140 g/ha of 75 to 84%.

Same assay, conditions: post-emergence, 336 h, SORVU: grain sorghum (Sorghum vulgare), 140 g ai/ha, 14 days after application, read-out: Visual Growth Reduction (%) 14 Days After Application, SORVU
`COC(=O)c1nc(-c2ccc(C(F)(F)F)cc2Cl)ccc1F` [F113, methyl 6-(2-chloro-4-(trifluoromethyl)phenyl)-3-fluoropicolinate] showed a pest or weed control at 140 g/ha of 85 to 94%.

Same assay, conditions: post-emergence, 336 h, STEME: common chickweed (Stellaria media), 140 g ai/ha, 14 days after application, read-out: Visual Growth Reduction (%) 14 Days After Application, STEME
In the case of `COC(=O)c1nc(-c2ccc(C(F)(F)F)cc2Cl)ccc1F` [F113, methyl 6-(2-chloro-4-(trifluoromethyl)phenyl)-3-fluoropicolinate], the pest or weed control at 140 g/ha is reported as 0 to 29%.

Same assay, conditions: post-emergence, 336 h, TRZAS: wheat, spring (Triticum aestivum), 140 g ai/ha, 14 days after application, read-out: Visual Growth Reduction (%) 14 Days After Application, TRZAS
With `COC(=O)c1nc(-c2ccc(C(F)(F)F)cc2Cl)ccc1F` [F113, methyl 6-(2-chloro-4-(trifluoromethyl)phenyl)-3-fluoropicolinate] the pest or weed control at 140 g/ha was 0 to 29%.

Same assay, conditions: post-emergence, 336 h, barnyardgrass (Echinochloa crus-galli), 14 Days After Application, 140 g ai/ha, read-out: Visual Growth Reduction (%) ECHCG
`COC(=O)c1nc(-c2ccc(C(F)(F)F)cc2Cl)c(I)cc1Cl` [F6, Methyl 3-chloro-6-(2-chloro-4-(trifluoromethyl)phenyl)-5-iodopicolinate] was tested, and the pest or weed control at 140 g/ha was 0 to 29%.

Same assay, conditions: post-emergence, 336 h, common chickweed (Stellaria media), 14 Days After Application, 140 g ai/ha, read-out: Visual Growth Reduction (%) STEME
`COC(=O)c1nc(-c2ccc(C(F)(F)F)cc2Cl)c(I)cc1Cl` [F6, Methyl 3-chloro-6-(2-chloro-4-(trifluoromethyl)phenyl)-5-iodopicolinate] showed a pest or weed control at 140 g/ha of 0 to 29%.

Same assay, conditions: post-emergence, 336 h, giant foxtail (Setaria faberi), 14 Days After Application, 140 g ai/ha, read-out: Visual Growth Reduction (%) SETFA
Compound `COC(=O)c1nc(-c2ccc(C(F)(F)F)cc2Cl)c(I)cc1Cl` [F6, Methyl 3-chloro-6-(2-chloro-4-(trifluoromethyl)phenyl)-5-iodopicolinate] has a pest or weed control at 140 g/ha of 0 to 29%.

Same assay, conditions: post-emergence, 336 h, ivy-leaf morning glory (Ipomoea hederacea), 14 Days After Application, 140 g ai/ha, read-out: Visual Growth Reduction (%) IPOHE
Compound `COC(=O)c1nc(-c2ccc(C(F)(F)F)cc2Cl)c(I)cc1Cl` [F6, Methyl 3-chloro-6-(2-chloro-4-(trifluoromethyl)phenyl)-5-iodopicolinate] has a pest or weed control at 140 g/ha of 45 to 59%.

Same assay, conditions: post-emergence, 336 h, johnsongrass (Sorghum vulgare), 14 Days After Application, 140 g ai/ha, read-out: Visual Growth Reduction (%) SORVU
`COC(=O)c1nc(-c2ccc(C(F)(F)F)cc2Cl)c(I)cc1Cl` [F6, Methyl 3-chloro-6-(2-chloro-4-(trifluoromethyl)phenyl)-5-iodopicolinate] showed a pest or weed control at 140 g/ha of 45 to 59%.

Same assay, conditions: post-emergence, 336 h, kochia (Bassia scoparia), 14 Days After Application, 140 g ai/ha, read-out: Visual Growth Reduction (%) KCHSC
Work on `COC(=O)c1nc(-c2ccc(C(F)(F)F)cc2Cl)c(I)cc1Cl` [F6, Methyl 3-chloro-6-(2-chloro-4-(trifluoromethyl)phenyl)-5-iodopicolinate] yielded a pest or weed control at 140 g/ha of 45 to 59%.

Same assay, conditions: post-emergence, 336 h, rice (Oryza sativa), 14 Days After Application, 140 g ai/ha, read-out: Visual Growth Reduction (%) ORYSA
`COC(=O)c1nc(-c2ccc(C(F)(F)F)cc2Cl)c(I)cc1Cl` [F6, Methyl 3-chloro-6-(2-chloro-4-(trifluoromethyl)phenyl)-5-iodopicolinate] gave a pest or weed control at 140 g/ha of 0 to 29%.

Same assay, conditions: post-emergence, 336 h, wheat, spring (Triticum aestivum), 14 Days After Application, 140 g ai/ha, read-out: Visual Growth Reduction (%) TRZAS
For `COC(=O)c1nc(-c2ccc(C(F)(F)F)cc2Cl)c(I)cc1Cl` [F6, Methyl 3-chloro-6-(2-chloro-4-(trifluoromethyl)phenyl)-5-iodopicolinate], the pest or weed control at 140 g/ha was 0 to 29%.

Source: patent US20230017045A1, “PYRIDINE AND PYRIMIDINE CARBOXYLATE HERBICIDES AND METHODS OF USE THEREOF” (Dow AgroSciences LLC, priority 2017, published 2023)
